Results taken from US20100069433A1, “PROPHYLACTIC AND/OR THERAPEUTIC AGENT FOR HYPERLIPIDEMIA” (KOWA COMPANY, LTD., priority 2007, published 2010).

Tests used:
[1] = system: total cholesterol concentration in blood plasma; assay: Total cholesterol concentration in blood plasma of rats after repeated oral administration (Example 1); format: in vivo, Male Sprague Dawley rats; conditions: oral once a day, pitavastatin 10 mg/kg, compound A 0.3 mg/kg, N = 8
Experimental: (§1) Male Sprague Dawley rats (Crl: CD (SD), Japan Charles River Co. Ltd., 6 weeks old) were taken for the test. Throughout the test period, the rats were bred in a breeding room maintained with a light/dark cycle (bright period under room light: 7 A.M. to 7 P.M.) at a temperature of 23±3° C. and a humidity of 55±15%, and were allowed to freely take solid feedstuff (CE-2; Oriental Yeast Co. Ltd.) and tap water. Compound A and pitavastatin were each suspended in a 0.5 mass % aqueous solution of methylcellulose (Metolose (registered trademark) SM-400, Shin-Etsu Chemical Co. Ltd.), and the amount of administration of the aqueous solution was adjusted to be 2 mL/kg. The suspension was stored in a shading bottle under refrigeration (4° C.), and the preparation was performed once every 7 days. Additionally, when the pitavastatin is a hydrate as in the case of the present Example, the water content of a standard product can be measured by a conventional method known to those ordinarily skilled in the art, and the amount required in the production of drug based on the water content of the “pitavastatin calcium hydrate” used in the present Example can be calculated. […] The two medicaments were orally administered repeatedly for 14 days at a rate of once a day (in the morning). The control group of the first group was orally administered with 2 mL/kg of a 0.5 mass % aqueous solution of methylcellulose. […] Furthermore, the LDL-cholesterol concentration in blood plasma was measured using high performance liquid chromatography according to the method of Usui et al. (Lipid Res., 43:805-814, 2002). The results were shown in the form of average value±standard error. A multiple group comparison between the control group and the drug administered groups was conducted using Dunnett' s multiple comparison test. A risk rate of less than 5% was determined to have a significant difference.

[2] = system: triglyceride concentration in blood plasma; assay: Plasma triglyceride concentration in Zucker fatty rats after repeated oral administration (Example 2); format: in vivo, Male Zucker fatty rats; conditions: compound A 0.1 mg/kg, pitavastatin 10 mg/kg, fenofibrate 100 mg/kg; for triglyceride concentration in blood plasma, Average value ± Standard error / triglyceride concentration in blood plasma, Relative value compared to control group: two weeks (14th day), oral once a day, N = 7-8; for rate of decrease of the triglyceride concentration in blood plasma: two weeks, vs control group
Experimental: The effect of administration of compound A and pitavastatin on the plasma triglyceride concentration in this animal model was determined according to the following methods.
Male Zucker fatty rats (Crlj: ZUC-Lepr^fa, Japan Charles River Co. Ltd., 10 weeks old) were taken for the test.
Throughout the test period, the rats were bred in a breeding room maintained with a light/dark cycle (bright period under room light: 7 A.M. to 7 P.M.) at a temperature of 23±3° C. and a humidity of 55±15%, and were allowed to freely take solid feedstuff (CE-2; Oriental Yeast Co. Ltd.) and tap water.
Compound A, pitavastatin and fenofibrate (Sigma-Aldrich Co. Ltd.) were each suspended in a 0.5 mass % aqueous solution of methylcellulose (Metolose (registered trademark) SM-400, Shin-Etsu Chemical Co. Ltd.), and the amount of administration of the aqueous solution was adjusted to be 2 mL/kg. The suspension was stored in a shading bottle under refrigeration (4° C.), and the preparation was carried out once every 7 days. Additionally, when the pitavastatin was a hydrate as in the case of the present Example, the water content of a standard product was measured by a conventional method known to those ordinarily skilled in the art, and the amount required in the production of drug based on the water content of the “pitavastatin calcium hydrate” used in the present Example was calculated.
In order to average the total cholesterol concentration and the triglyceride concentration in blood plasma, the rats were divided into the following six groups (eight animals each group), that is, a control group as a first group, a group administered with compound A only (0.1 mg/kg) as a second group, a group administered with pitavastatin only (10 mg/kg) as a third group, a group administered with fenofibrate only (100 mg/kg) as a fourth group, a group administered with pitavastatin (10 mg/kg) and compound A (0.1 mg/kg) in combination as a fifth group, and a group administered with pitavastatin (10 mg/kg) and fenofibrate (100 mg/kg) in combination as a sixth group.
The two medicaments were orally administered repeatedly for 14 days at a rate of once a day (in the morning). The control group of the first group was orally administered with 2 mL/kg of a 0.5 mass % aqueous solution of methylcellulose.
On the 14th day after the initiation of administration, the rats were fasted for 4 hours from administration, then blood was collected, and the triglyceride concentration in blood plasma was measured by an enzymatic method.
A multiple group comparison between the control group and the drug administered groups was conducted using Dunnett's multiple comparison test. A risk rate of less than 5% was determined to have a significant difference.

[3] = system: triglyceride concentration in blood plasma; assay: Triglyceride concentration in blood plasma of rats after repeated oral administration (Example 1); format: in vivo, Male Sprague Dawley rats; conditions: two weeks after the initiation of administration (14th day), oral once a day, pitavastatin 10 mg/kg, compound A 0.3 mg/kg, N = 8; for triglyceride concentration in blood plasma, Average value ± Standard error: in mg/dL
Experimental: as §1

[4] = system: LDL-cholesterol concentration in blood plasma; assay: LDL-cholesterol concentration in blood plasma of rats after repeated oral administration (Example 1); format: in vivo, Male Sprague Dawley rats; conditions: one week after the administration, oral once a day, pitavastatin 10 mg/kg, compound A 0.3 mg/kg, N = 8; for LDL-cholesterol concentration in blood plasma, Average value ± Standard error: in mg/dL
Experimental: as §1

blood glucose level = assay: Oral glucose tolerance test in Zucker fatty rats (Example 3); format: in vivo, Male Zucker fatty rats; conditions: 28 days oral once a day, compound A 0.3 mg/kg, pitavastatin 3 mg/kg, fenofibrate 100 mg/kg
Experimental: As a method for examining diabetes mellitus, an oral glucose tolerance test, that is, a method in which a test subject fasted overnight is orally fed with a glucose solution, and blood is collected before and after the feeding, to examine the degree of increase in the blood glucose level, is widely performed. Thus, the Zucker fatty rat was used and administered with medicaments, and then an oral glucose tolerance test was performed to investigate the influence of the medicament of the present invention exerted on the blood glucose level. Male Zucker fatty rats (Crlj: ZUC-Lepr^fa, Japan Charles River Co. Ltd., 9 weeks old) were taken for the test. […] Additionally, when the pitavastatin was a hydrate as in the case of the present Example, the water content of a standard product was measured by a conventional method known to those ordinarily skilled in the art, and the amount required in the production of drug based on the water content of the “pitavastatin calcium hydrate” used in the present Example was calculated. […] The blood glucose level was measured by an enzymatic method. […] A risk rate of less than 5% was determined to have a significant difference.

[5] = system: total plasma cholesterol concentration; conditions: results of clinical trials; cited from earlier work
[6] = one week after administration (7th day), 4 h fasted
[7] = two weeks after the initiation of administration (14th day)
[8] = two weeks after the initiation of administration (14th day), in mg/dL

| SMILES | total cholesterol concentration in blood plasma, Average value ± Standard error [1, 6] [mg/dL] | total cholesterol concentration in blood plasma, Relative value compared to control group ([1]; one week after administration (7th day)) | total cholesterol concentration in blood plasma, Relative value compared to control group ([1]; one week after administration (7th day), listed as compound A) | total cholesterol concentration in blood plasma, Relative value compared to control group [1, 7] | total cholesterol concentration in blood plasma, Average value ± Standard error [1, 8] | triglyceride concentration in blood plasma, Average value ± Standard error [2] [mg/dL] | triglyceride concentration in blood plasma, Relative value compared to control group [2] | rate of decrease of the triglyceride concentration in blood plasma [2] [%] | triglyceride concentration in blood plasma, Relative value compared to control group [3] | triglyceride concentration in blood plasma, Average value ± Standard error [3] | triglyceride concentration in blood plasma, Relative value compared to control group ([3]; listed as compound A) | LDL-cholesterol concentration in blood plasma, Relative value compared to control group [4] | LDL-cholesterol concentration in blood plasma, Average value ± Standard error [4] | change in blood glucose level over time after glucose loading (FIG. 3A) (blood glucose level) | total cholesterol concentration in blood plasma, Relative value compared to control group ([1]; one week after administration (7th day), calcium hydrate) | total cholesterol concentration in blood plasma, Relative value compared to control group ([1]; one week after administration (7th day), listed as pitavastatin, calcium hydrate) | triglyceride concentration in blood plasma, Relative value compared to control group ([3]; calcium hydrate) | rate of improvement in the total plasma cholesterol concentration [5] [%] |
| --- | --- | --- | --- | --- | --- | --- | --- | --- | --- | --- | --- | --- | --- | --- | --- | --- | --- | --- |
| CC[C@@H](Oc1cccc(CN(CCCOc2ccc(OC)cc2)c2nc3ccccc3o2)c1)C(=O)O [Compound A, (R)-2-[3-[[N-(Benzoxazol-2-yl)-N-3-(4-methoxyphenoxy)propyl]aminomethyl]phenoxy]butyric acid] | 48.3 ± 1.8 | 0.792 | 0.903 | 0.752 | 43.4 ± 1.9 | 518.0 ± 106.0 | 0.798 | 20 | 0.806 | 33.3 ± 2.2 | 0.942 | 0.698 | 8.1 ± 0.4 | rapid increases in the blood glucose level |  |  |  |  |
| CC(C)OC(=O)C(C)(C)Oc1ccc(C(=O)c2ccc(Cl)cc2)cc1 [Fenofibrate, fenofibrate] |  |  |  |  |  | 546.3 ± 58.9 | 0.841 | 16 |  |  |  |  |  |  |  |  |  |  |
| O=C(O)C[C@H](O)C[C@H](O)/C=C/c1c(C2CC2)nc2ccccc2c1-c1ccc(F)cc1 [Pitavastatin, pitavastatin calcium hydrate] | 55.1 ± 5.7 |  |  | 0.997 | 57.5 ± 6.6 | 612.2 ± 61.0 | 0.943 | 6 | 0.942 | 38.9 ± 3.1 |  | 0.974 | 11.3 ± 1.8 | rapid increases in the blood glucose level | 0.903 | 0.792 | 0.806 | 93.9 |
